One assay concerns DCT. Kind of assay: qPCR assay for DCT expression in SK-MEL-5 cells. The class given is cell-based. To be noted: Homo sapiens; SK-MEL-5 melanoma cells, up to 35 μM.
Another assay relates to CDK2. Kind of assay: qPCR assay for CDK2 expression in SK-MEL-5 cells. It counts as cell-based, human. To be noted: Homo sapiens; SK-MEL-5 melanoma cells, up to 35 μM. As for the experimental part: SK-MEL-5 cells were treated with compounds for 24 hours. Next, cells were lysed with DNase I (Ambion, from Cell to CT Lysis Mix). Lysed cells were delivered to a RT-PCR plate (Ambion, Cells to CT RT Mix) and the plates were then processed for reverse transcription to create cDNA. qPCR was performed by transferring cDNA from the RT-PCR plate to a qPCR plate containing PCR master mix (Roche, Probes Master), FAM Taqman probe/primer set for the target gene (human MITF, Applied Biosystem, 4331182 Hs01117294_m1), VIC Taqman probe/primer set for a house keeping gene (human GAPDH, Applied Biosystems C10228) and water. qPCR plates were cycled using a real-time PCR instrument (Roche, Light Cycler). Using the instrument software, a cycle call was generated when each well enters log phase amplification (Ct). The delta Ct value was determined by subtracting the Ct value of the control gene (GAPDH) from the Ct value of the target gene (MITF) in each well. The delta delta Ct value of each compound treatment was determined by averaging the delta Ct values of the mock well on each plate and subtracting that average from the delta Ct value of each compound well. […]
• 10. […] The RT assay plates are incubated at 37° C. for 1 hour and the reverse transcriptase is inactivated by incubating the plates for 1 minute at 95° C. • 13. cDNA is stored at −80° C. until ready for qPCR analysis […]
(In qPCR the cycle at which signal appears reflects the starting amount.)

For assay [1], the target named is T1, Transporter, Serotonin (5-Hydroxytryptamine) (SERT) (Homo sapiens, UniProt P31645).
T1 construct: Eurofins Panlabs
T1 sequence (P31645 whole entry): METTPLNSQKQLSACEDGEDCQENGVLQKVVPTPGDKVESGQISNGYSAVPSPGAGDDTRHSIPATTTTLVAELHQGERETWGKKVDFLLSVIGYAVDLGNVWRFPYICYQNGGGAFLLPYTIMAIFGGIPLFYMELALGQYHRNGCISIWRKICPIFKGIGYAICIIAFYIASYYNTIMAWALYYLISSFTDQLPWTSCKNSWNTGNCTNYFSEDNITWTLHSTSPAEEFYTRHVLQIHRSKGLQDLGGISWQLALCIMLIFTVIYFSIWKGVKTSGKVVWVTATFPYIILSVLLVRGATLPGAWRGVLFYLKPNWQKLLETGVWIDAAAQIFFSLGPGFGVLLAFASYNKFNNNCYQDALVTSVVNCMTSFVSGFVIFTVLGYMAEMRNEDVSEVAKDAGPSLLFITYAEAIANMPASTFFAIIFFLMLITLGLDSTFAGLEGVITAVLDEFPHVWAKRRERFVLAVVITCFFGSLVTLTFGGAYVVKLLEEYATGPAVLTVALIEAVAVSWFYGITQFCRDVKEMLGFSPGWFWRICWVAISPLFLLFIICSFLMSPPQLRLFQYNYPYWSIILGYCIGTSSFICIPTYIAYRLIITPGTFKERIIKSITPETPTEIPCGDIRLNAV
Kind of assay: Radioligand binding, Transporter, Serotonin (5-Hydroxytryptamine) (SERT).

A further assay addresses T2, Cannabinoid CB1 (Homo sapiens, UniProt P21554).
T2 construct: Eurofins Panlabs, Inc. (contract assay)
Kind of assay: Radioligand binding, Cannabinoid CB1.

The next assay concerns the target T3, Estrogen ERα (Homo sapiens, UniProt P03372).
T3 construct: Eurofins Panlabs, Inc. (contract assay)
Kind of assay: Radioligand binding, Estrogen ERα.

A further assay concerns the target T4, Histamine H2 (Homo sapiens, UniProt P25021).
T4 construct: Eurofins Panlabs, Inc
Kind of assay: Radioligand binding, Histamine H2.

In another assay the target is T5, Prostanoid EP4 (Homo sapiens, UniProt P35408).
T5 construct: Eurofins Panlabs
T5 sequence (P35408 whole entry): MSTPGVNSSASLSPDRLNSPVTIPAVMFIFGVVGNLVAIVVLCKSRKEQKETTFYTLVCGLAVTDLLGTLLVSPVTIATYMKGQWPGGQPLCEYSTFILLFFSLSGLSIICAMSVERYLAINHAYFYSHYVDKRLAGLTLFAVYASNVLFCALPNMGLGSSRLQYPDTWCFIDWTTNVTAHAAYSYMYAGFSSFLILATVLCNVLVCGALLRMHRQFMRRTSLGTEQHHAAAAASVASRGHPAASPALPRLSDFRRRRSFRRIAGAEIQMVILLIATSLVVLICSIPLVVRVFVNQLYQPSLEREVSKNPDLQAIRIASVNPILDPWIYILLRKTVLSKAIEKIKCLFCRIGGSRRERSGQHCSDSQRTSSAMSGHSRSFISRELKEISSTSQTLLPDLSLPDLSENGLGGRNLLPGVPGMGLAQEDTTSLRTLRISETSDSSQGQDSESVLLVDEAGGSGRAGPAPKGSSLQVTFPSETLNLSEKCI
Kind of assay: Radioligand binding, Prostanoid EP4.

A further assay deals with T6, Adrenergic α2A (Homo sapiens, UniProt P08913).
T6 construct: Eurofins Panlabs, Inc. (contract assay)
Kind of assay: Radioligand binding, Adrenergic α2A.

Assay [2] addresses T7, Transporter, Dopamine (DAT) (Homo sapiens, UniProt Q01959).
T7 construct: Eurofins Panlabs
Kind of assay: Radioligand binding, Transporter, Dopamine (DAT).

The next assay addresses T8, Dopamine D2S (Homo sapiens, UniProt P14416).
T8 construct: Eurofins Panlabs, Inc. (contract assay)
Kind of assay: Radioligand binding, Dopamine D2S.

Assay [3] concerns the target T9, Transporter, Norepinephrine (NET) (Homo sapiens, UniProt P23975).
T9 construct: Eurofins Panlabs
Kind of assay: Radioligand binding, Transporter, Norepinephrine (NET).

The target in assay [4] is T10, Epidermal Growth Factor (EGF) (Homo sapiens, UniProt P00533).
T10 construct: Eurofins Panlabs, Inc. (contract assay)
T10 sequence (P00533 25-1210): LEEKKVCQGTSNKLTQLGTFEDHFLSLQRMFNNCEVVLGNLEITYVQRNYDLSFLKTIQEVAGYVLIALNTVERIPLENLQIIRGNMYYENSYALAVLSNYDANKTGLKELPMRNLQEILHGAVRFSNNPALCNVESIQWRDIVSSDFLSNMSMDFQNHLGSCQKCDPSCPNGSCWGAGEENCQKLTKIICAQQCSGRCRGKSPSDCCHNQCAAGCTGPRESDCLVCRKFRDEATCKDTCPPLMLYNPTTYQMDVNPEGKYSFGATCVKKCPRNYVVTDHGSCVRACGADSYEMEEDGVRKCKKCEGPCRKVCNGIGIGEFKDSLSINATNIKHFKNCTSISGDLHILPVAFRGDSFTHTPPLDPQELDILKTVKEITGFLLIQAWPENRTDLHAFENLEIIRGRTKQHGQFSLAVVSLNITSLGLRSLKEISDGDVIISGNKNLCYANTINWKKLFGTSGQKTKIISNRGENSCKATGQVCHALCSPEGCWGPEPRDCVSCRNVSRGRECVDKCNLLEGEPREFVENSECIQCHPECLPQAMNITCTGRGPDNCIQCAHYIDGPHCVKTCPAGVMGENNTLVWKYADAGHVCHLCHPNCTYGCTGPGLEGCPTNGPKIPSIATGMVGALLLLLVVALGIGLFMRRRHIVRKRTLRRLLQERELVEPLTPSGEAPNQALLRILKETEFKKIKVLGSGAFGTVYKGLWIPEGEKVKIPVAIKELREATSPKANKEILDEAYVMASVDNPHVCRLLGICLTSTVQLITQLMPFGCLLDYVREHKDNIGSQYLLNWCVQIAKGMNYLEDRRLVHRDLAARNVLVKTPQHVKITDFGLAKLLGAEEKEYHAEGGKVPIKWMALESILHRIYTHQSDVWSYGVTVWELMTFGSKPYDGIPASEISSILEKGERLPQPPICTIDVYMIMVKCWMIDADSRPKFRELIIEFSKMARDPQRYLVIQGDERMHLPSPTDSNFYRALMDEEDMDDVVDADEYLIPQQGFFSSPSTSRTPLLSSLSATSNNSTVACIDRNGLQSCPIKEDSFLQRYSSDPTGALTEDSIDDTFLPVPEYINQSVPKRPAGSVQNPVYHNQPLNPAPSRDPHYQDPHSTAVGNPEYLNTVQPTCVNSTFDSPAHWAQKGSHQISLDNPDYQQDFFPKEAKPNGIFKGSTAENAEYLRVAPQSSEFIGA
Kind of assay: Radioligand binding, Epidermal Growth Factor (EGF).

The next assay has as its target T11, Glutamate, NMDA, Glycine (Rattus norvegicus, UniProt P35439).
T11 construct: Eurofins Panlabs, Inc
Kind of assay: Radioligand binding, Glutamate, NMDA, Glycine.

Another assay concerns the target T12, Opiate κ (OP2, KOP) (Homo sapiens, UniProt P41145).
T12 construct: Eurofins Panlabs, Inc
Kind of assay: Radioligand binding, Opiate κ (OP2, KOP).

Another assay deals with T13, Opiate δ1 (OP1, DOP) (Homo sapiens, UniProt P41143).
T13 construct: Eurofins Panlabs, Inc
T13 sequence (P41143 whole entry): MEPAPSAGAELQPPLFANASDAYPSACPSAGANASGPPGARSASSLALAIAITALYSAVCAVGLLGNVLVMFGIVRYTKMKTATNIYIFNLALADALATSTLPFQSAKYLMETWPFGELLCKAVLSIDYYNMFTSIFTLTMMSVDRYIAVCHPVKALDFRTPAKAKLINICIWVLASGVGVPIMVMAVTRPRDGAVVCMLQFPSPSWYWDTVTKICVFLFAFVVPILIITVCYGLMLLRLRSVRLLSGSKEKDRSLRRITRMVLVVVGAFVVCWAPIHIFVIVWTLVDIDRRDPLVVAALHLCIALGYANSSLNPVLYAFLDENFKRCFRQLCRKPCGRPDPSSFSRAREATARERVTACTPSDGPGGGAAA
Kind of assay: Radioligand binding, Opiate δ1 (OP1, DOP).

Another assay deals with T14, GABAB1A (Homo sapiens, UniProt Q9UBS5).
T14 construct: Eurofins Panlabs, Inc
T14 sequence (Q9UBS5 15-961 limits assumed): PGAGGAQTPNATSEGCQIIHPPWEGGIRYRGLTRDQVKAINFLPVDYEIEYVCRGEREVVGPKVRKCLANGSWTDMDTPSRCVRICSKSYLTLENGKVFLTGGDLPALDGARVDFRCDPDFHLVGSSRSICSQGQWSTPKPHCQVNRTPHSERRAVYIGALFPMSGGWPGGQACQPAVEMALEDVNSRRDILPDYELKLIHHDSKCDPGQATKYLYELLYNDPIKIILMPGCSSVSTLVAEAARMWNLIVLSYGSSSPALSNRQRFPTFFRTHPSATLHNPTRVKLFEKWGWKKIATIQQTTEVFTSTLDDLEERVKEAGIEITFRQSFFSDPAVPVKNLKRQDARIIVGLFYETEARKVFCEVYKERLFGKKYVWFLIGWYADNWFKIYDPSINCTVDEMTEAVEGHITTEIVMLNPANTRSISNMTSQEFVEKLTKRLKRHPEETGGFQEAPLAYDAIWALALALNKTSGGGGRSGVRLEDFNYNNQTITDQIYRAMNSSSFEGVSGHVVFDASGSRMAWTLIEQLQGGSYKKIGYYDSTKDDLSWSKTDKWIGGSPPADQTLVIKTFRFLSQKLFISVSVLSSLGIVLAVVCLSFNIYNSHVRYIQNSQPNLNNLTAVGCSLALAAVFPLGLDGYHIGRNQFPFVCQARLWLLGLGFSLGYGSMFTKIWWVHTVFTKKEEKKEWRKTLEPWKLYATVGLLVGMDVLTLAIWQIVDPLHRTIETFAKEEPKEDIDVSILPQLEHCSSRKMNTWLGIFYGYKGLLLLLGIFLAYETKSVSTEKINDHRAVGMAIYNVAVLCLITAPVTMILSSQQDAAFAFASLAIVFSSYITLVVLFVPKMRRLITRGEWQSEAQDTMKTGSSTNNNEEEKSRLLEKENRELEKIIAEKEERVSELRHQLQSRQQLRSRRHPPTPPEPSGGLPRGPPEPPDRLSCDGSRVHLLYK
Kind of assay: Radioligand binding, GABAB1A.

T9 sequence (P23975 whole entry): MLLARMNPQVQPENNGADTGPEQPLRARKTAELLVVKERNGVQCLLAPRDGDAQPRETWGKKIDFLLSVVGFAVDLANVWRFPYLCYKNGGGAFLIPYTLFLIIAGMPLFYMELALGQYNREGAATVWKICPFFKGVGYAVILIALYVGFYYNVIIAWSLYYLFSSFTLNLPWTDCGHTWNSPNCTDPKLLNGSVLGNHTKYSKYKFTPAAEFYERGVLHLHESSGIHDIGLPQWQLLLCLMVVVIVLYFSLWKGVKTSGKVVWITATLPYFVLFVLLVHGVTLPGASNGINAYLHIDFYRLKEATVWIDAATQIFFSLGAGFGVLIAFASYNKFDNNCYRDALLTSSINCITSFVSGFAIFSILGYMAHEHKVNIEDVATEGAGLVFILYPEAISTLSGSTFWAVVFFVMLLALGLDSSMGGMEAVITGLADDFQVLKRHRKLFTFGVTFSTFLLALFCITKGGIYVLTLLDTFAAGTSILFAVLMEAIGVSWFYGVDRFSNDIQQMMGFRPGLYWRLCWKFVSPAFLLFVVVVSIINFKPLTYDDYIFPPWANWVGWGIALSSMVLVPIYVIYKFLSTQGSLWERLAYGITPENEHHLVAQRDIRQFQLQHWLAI
T4 sequence (P25021 whole entry): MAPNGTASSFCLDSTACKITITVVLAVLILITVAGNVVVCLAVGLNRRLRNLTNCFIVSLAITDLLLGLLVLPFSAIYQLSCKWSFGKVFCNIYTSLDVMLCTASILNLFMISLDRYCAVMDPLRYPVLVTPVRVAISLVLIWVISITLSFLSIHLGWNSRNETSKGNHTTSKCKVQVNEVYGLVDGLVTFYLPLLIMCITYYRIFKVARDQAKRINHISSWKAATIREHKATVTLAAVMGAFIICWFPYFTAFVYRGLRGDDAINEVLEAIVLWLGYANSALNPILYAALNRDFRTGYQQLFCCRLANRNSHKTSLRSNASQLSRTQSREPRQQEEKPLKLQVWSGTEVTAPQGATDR
T8 sequence (P14416 1-414 isoform P14416-2): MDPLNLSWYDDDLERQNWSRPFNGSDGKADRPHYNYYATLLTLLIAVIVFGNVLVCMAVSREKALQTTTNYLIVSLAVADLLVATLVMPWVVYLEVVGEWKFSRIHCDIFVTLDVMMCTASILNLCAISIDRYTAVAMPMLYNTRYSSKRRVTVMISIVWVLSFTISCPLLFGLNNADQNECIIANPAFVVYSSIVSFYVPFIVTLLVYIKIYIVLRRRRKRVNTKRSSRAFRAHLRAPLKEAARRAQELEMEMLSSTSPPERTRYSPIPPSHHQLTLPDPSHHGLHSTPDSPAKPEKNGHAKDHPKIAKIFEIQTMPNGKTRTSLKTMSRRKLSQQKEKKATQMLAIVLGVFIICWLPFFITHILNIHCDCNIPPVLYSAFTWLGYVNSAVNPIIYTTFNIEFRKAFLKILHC

Broadly, the EC50 is the concentration giving half of the maximal effect. Low readings indicate an effect from little substance, high ones a need for much substance. For `NS(=O)(=O)c1ccc(NC2=CC(=O)c3ccccc3C2=O)cc1` [4-((1,4-dioxo-1,4-dihydronaphthalen-2-yl)amino)benzenesulfonamide], the values for the EC50 with DCT and with CDK2 were 100 nM and 500 nM, respectively.

One may read the inhibition as the drop in the measured response relative to a control, in per cent. With `NS(=O)(=O)c1ccc(NC2=CC(=O)c3ccccc3C2=O)cc1` [Example 1, 4-((1,4-Dioxo-1,4-dihydronaphthalen-2-yl)amino)benzenesulfonamide], the inhibition at 10 µM is -5% in [1]; 31% on Cannabinoid CB1; 5% on Estrogen ERα; -5% on Histamine H2; 11% at Prostanoid EP4; 33% at Adrenergic α2A. Moreover, the inhibition at 10 µM in assay [2] came to 2%; at Dopamine D2S, 0%; in [3], 8%; in [4] it was 11%; at Glutamate, NMDA, Glycine, 9%; on Opiate κ (OP2, KOP) it was 19%. The inhibition at 10 µM at Opiate δ1 (OP1, DOP) was -6%; on GABAB1A, 11%.
